Patent publication US10300064B2, “Organic compounds” (INTRA-CELLULAR THERAPIES, INC., priority 2014, dated 2019)
pIC50: −log10 of the molar value. One block for each compound: values may come before it.

Assays:
[1] = target: T1, r-hPDE2A (Homo sapiens, UniProt O00408); assay: Measurement of PDE2 inhibition in vitro (IMAP fluorescence polarization, FL-cAMP substrate); assay type: biochemical; details: 1 μM cGMP
T1 construct: host or cells: HEK293 cells, transient transfection; soluble cytosolic fraction used
T1 sequence (O00408 whole entry): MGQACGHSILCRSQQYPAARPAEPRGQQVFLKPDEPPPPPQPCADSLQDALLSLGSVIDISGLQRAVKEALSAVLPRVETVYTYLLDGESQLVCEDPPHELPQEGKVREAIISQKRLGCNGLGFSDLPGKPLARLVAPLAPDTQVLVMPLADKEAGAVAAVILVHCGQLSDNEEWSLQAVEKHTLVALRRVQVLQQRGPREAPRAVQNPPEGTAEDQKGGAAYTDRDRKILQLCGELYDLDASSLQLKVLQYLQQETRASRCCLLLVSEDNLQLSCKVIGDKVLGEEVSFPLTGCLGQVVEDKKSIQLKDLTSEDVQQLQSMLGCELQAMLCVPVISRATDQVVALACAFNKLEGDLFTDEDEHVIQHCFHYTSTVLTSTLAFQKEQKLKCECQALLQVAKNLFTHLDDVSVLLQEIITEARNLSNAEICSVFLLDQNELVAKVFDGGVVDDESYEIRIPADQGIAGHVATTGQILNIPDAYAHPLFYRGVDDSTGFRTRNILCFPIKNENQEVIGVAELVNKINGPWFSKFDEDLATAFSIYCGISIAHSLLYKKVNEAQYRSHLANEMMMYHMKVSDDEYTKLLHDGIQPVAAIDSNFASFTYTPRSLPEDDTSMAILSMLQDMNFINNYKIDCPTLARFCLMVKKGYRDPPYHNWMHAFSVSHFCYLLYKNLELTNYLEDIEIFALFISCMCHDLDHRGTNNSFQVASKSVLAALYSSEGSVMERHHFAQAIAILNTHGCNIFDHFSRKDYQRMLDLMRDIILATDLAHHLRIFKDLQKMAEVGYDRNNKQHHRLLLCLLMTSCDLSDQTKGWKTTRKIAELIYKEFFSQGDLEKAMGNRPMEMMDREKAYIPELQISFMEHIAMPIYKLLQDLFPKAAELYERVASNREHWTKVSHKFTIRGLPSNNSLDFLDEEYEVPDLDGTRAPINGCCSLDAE
Method: Measurement of PDE2 Inhibition In Vitro
r-hPDE2A (Accession No. NM_002599, Homo sapiens phosphodiesterase 2A, cGMP-stimulated, transcript variant 1) A mammalian expression cloning vector with recombinant cDNA copy of the gene is purchased from Origene. Protein is expressed via transient transfection of HEK293 cells. The cells are harvested at 48 hours after transfection, washed once with TBS buffer (50 mM Tris-HCl, pH 7.5, 150 mM NaCl), then lysed by sonication in cold homogenization buffer (50 mM Tris-HCl, pH 7.5, 5 mM MgCl2, lx protease inhibitor cocktail). The homogenate is centrifuged for […] at 15,000 g at 4° C. to obtain the soluble cytosolic fraction. The protein concentration of the cytosol is determined using BCA Protein Assay Kit (Pierce) with bovine serum albumin as a standard.
PDE2A is assayed with FL-cAMP as substrate. An enzyme titration is first performed to determine the working concentration of PDE. The concentration of the enzyme giving activity of 100 ΔmP in the absence of inhibitor is deemed an appropriate working concentration for PDE.
PDE enzyme is diluted in a standard reaction buffer (10 mM Tris-HCl pH 7.2, 10 mM MgCl2, 0.1% BSA, 0.05% NaN3) according to the titration curve. For PDE2 assay the reaction buffer is supplemented with 1 μM cGMP to fully activate the enzyme. 99 μl of diluted enzyme solution is added into each well in a flat bottom 96-well polystyrene plate and then 1 μl of test compound dissolved in 100% DMSO is added. The compounds are mixed and pre-incubated with the enzyme for 10 min at room temperature.
The FL-cNMP conversion reaction is initiated by addition of substrate (45 nM final). Enzyme and inhibitor mix (16 μl) and substrate solution (4 μl of 0.225 μM) are combined in a 384-well microtiter plate. The reaction is incubated in the dark at room temperature for 15 min. The reaction is halted by addition of 60 μl of binding reagent (1:400 dilution of IMAP beads in binding buffer supplemented with 1:1800 dilution of antifoam) to each well of the 384-well plate. The plate is incubated at room temperature for 1 hour to allow IMAP binding to proceed to completion, and then placed in an Envision multimode microplate reader (PerkinElmer, Shelton, Conn.) to measure the fluorescence polarization (Δmp).
A decrease in cAMP concentration, measured as decreased Amp, is indicative of inhibition of PDE activity. […] IC50 values are estimated using nonlinear regression software, fitting a four-parameter one-site dose-response model (XLFit; IDBS, Cambridge, Mass.). […]
The total fluorescence intensity of each sample well is measured to calculate the average and standard deviation. If the total fluorescence intensity of any sample well is not within the range of Average±3SD, the mp value of that particular well is discarded. […]

[2] = Pharmacokinetic study in mice (plasma and brain availability); assay type: in vivo; details: single oral dose 10 mg/kg PO, 0.25-4h, FIG. 1
Method: FIG. 1 illustrats the plasma and brain levels in mice dosed with 10 mg/kg P.O. of the compound of Example 1 over time.
Mice are given a single oral dose of the compound to be tested (10 mg/kg, PO) and plasma and brain availability are measured (0.25-4h) using HPLC and LC-MS using methods analogous to those described in Zhao et al., J. Chromatogr. B. Analyt. Technol. Biomed. Life Sci. (2005) 819(1):73-80 and Appels, N. M., et al., Rapid Commun. Mass Spec. 2005. 19(15): p. 2187-92.

[3] = system: Wistar rats; assay: Object recognition task, memory performance of Wistar rats; assay type: in vivo, rat; details: male Wistar rats, oral, 2 h before learning
Method: The Effects of Treatment with PDE2 Inhibitors on Memory Performance of Wistar Rats in the Object Recognition Task
The memory-enhancing effects of the compound of Example 1 are tested in an animal model of cognition, the object recognition task. See, Ennaceur, A., Delacour, J., 1988. A new one-trial test for neurobiological studies of memory in rats. 1: Behavioral data. Behav. Brain Res. 31, 47-59. Rats remember which object they have explored in a previous trial when they are tested one hour later. However, when a 24 h inter-trial interval is used, they are not able to remember which object was presented to them in the first trial. It is tested whether the compound of Example 1 would attenuate this time-induced object memory deficit, when given 2 h before the first trial. The compounds are given to 2-3-months-old male Wistar rats.
The compound of Example 1 is injected orally (2 ml/kg) 2 h before learning, at doses of 0, 0.3, 1, 3 and 10 mg/kg.

[4] = system: PDE1; assay: Selectivity for PDE2 over PDE1; assay type: biochemical
Method: (§1) Using the IMAP procedure described or similarly described above, we screened a proprietary PDE-focused compound library to identify novel compounds with nanomolar PDE2 inhibitory activities. […] The compounds are moreover selective for PDE2; the compound of Example 4 is tested and shown to be selective for PDE2 over PDE1, PDE3, PDE4D, PDE5, PDE6, PDE7B, PDE8A, PDE9A, PDE10A and PDE11A by greater than 20-fold.

[5] = system: PDE3; assay: Selectivity for PDE2 over PDE3; assay type: biochemical
Method: as §1

[6] = target: PDE4D (Homo sapiens, UniProt Q08499); assay: Selectivity for PDE2 over PDE4D; assay type: biochemical
Chain of PDE4D (Q08499 whole entry, species assumed): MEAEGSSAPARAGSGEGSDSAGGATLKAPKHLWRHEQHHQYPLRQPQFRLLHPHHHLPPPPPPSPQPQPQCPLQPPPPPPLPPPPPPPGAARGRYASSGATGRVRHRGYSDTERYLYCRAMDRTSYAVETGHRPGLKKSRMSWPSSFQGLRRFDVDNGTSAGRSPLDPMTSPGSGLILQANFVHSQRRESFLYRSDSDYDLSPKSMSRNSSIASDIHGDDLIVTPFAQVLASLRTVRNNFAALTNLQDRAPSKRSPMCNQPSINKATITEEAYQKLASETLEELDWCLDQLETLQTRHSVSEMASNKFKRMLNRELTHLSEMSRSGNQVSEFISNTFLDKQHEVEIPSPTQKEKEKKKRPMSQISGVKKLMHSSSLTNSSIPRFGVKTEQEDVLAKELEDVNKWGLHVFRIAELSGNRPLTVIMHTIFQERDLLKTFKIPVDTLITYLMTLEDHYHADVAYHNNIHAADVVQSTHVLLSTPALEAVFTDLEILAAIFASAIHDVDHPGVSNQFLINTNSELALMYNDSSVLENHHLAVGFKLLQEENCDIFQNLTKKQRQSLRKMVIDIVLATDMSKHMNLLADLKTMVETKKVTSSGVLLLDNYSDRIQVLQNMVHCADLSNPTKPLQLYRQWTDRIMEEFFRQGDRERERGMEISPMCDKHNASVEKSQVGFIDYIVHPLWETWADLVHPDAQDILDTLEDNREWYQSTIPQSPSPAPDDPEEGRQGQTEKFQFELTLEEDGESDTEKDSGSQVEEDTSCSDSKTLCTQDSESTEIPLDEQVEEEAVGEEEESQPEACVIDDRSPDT
Method: as §1

[7] = target: PDE5 (Homo sapiens, UniProt O76074); assay: Selectivity for PDE2 over PDE5; assay type: biochemical
Method: as §1

[8] = system: PDE6; assay: Selectivity for PDE2 over PDE6; assay type: biochemical
Method: as §1

[9] = target: PDE7B (Homo sapiens, UniProt Q9NP56); assay: Selectivity for PDE2 over PDE7B; assay type: biochemical
Chain of PDE7B (Q9NP56 whole entry, species assumed): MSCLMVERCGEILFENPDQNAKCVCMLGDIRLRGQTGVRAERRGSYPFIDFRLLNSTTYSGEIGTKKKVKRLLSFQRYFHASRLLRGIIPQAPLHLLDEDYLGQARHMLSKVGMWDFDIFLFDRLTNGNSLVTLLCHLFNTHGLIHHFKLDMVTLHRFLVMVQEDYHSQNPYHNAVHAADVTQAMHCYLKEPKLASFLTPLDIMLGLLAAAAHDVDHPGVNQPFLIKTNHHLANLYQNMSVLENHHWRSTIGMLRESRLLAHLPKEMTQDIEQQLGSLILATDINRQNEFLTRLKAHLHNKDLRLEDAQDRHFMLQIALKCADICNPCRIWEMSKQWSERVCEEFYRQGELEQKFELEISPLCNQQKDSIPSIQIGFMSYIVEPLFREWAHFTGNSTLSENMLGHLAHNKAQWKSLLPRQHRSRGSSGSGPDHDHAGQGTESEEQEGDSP
Method: as §1

[10] = target: PDE8A (Homo sapiens, UniProt O60658); assay: Selectivity for PDE2 over PDE8A; assay type: biochemical
Chain of PDE8A (O60658 whole entry, species assumed): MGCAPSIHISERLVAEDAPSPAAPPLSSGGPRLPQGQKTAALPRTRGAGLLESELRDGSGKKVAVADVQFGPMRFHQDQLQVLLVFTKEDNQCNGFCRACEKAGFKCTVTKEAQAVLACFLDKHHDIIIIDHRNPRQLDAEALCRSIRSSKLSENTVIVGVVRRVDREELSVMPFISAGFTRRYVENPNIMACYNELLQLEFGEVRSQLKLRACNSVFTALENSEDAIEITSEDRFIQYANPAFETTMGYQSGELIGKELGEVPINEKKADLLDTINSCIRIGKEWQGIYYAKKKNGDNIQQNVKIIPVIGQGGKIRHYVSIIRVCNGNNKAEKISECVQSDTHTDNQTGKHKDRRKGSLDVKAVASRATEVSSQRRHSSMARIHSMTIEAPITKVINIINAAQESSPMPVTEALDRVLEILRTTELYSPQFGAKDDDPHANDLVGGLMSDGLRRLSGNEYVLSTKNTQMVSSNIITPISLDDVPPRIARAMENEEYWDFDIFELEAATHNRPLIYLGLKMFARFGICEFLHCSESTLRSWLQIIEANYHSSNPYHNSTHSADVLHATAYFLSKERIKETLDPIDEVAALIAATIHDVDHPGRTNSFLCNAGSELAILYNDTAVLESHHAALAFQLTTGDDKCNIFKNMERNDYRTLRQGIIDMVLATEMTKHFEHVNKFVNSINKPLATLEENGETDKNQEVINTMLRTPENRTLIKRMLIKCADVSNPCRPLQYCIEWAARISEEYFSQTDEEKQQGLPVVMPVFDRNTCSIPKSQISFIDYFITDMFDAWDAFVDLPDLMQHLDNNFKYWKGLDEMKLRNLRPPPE
Method: as §1

[11] = target: PDE9A (Homo sapiens, UniProt O76083); assay: Selectivity for PDE2 over PDE9A; assay type: biochemical
Chain of PDE9A (O76083 whole entry, species assumed): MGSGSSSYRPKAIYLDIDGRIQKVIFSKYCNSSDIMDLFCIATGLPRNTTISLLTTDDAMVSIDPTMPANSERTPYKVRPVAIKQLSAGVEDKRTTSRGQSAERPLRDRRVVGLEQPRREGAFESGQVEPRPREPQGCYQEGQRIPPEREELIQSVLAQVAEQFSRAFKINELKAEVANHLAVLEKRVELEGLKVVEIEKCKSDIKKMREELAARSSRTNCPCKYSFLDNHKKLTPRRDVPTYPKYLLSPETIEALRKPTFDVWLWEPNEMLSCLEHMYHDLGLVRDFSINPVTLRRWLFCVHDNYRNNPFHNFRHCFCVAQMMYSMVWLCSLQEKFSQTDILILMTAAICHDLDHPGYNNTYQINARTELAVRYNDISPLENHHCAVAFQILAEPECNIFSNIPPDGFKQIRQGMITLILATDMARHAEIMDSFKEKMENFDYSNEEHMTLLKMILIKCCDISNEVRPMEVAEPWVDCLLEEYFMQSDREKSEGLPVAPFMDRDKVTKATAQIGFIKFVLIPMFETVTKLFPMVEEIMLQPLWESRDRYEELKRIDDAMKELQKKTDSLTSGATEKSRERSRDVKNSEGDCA
Method: as §1

[12] = target: PDE10A (Homo sapiens, UniProt Q9Y233); assay: Selectivity for PDE2 over PDE10A; assay type: biochemical
Chain of PDE10A (Q9Y233 whole entry, species assumed): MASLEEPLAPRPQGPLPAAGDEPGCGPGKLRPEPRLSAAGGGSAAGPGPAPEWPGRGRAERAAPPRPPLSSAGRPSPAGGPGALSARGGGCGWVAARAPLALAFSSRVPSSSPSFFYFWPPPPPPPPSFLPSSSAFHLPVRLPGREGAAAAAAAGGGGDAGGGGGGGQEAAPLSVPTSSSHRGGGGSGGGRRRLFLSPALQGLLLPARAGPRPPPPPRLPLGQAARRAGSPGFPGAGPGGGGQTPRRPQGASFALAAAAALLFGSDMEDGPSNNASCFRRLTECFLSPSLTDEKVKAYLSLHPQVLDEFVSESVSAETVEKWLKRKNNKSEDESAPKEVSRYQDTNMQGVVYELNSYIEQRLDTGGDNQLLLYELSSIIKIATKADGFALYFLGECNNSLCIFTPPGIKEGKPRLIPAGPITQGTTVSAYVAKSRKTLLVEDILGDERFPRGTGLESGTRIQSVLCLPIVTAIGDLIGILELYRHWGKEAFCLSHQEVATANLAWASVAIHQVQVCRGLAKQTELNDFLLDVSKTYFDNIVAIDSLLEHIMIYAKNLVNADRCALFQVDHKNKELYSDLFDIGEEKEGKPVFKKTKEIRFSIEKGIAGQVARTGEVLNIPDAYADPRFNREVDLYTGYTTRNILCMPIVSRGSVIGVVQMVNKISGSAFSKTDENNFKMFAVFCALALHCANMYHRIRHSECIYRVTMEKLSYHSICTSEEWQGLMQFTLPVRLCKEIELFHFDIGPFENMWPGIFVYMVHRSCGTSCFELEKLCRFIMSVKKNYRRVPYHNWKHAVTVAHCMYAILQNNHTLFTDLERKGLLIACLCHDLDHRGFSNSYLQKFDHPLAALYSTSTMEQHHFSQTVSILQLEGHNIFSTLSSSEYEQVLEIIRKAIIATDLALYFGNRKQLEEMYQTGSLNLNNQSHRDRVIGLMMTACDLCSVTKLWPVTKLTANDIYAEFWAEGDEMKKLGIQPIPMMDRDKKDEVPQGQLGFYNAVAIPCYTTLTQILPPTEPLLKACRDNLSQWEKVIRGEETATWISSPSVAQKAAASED
Method: as §1

[13] = target: PDE11A (Homo sapiens, UniProt Q9HCR9); assay: Selectivity for PDE2 over PDE11A; assay type: biochemical
Method: as §1

pIC50 [1]: 7.64 | brain access (plasma and brain availability) [2]: good brain access
Compound: Cc1nn(-c2cnn(C)c2-c2ccc(C(F)(F)F)cc2)c2c(N3CCC3)ncnc12 [Example 1, 7-(Azetidin-1-yl)-3-methyl-1-(1-methyl-5-(4-(trifluoromethyl)phenyl)-1H-pyrazol-4-yl)-1H-pyrazolo[4,3-d]pyrimidine]
memory improvement (object memory, 24 h inter-trial interval) ([3]; 0.3 mg/kg): intermediate memory improvement | time-dependent forgetting (object memory, 24 h inter-trial interval) ([3]; 1.0 mg/kg): completely prevent the time-dependent forgetting | memory improvement (object memory, 24 h inter-trial interval) ([3]; 3.0 mg/kg): intermediate memory improvement

pIC50 [1]: 7.04
Compound: COc1ccc(-c2c(-n3nc(C)c4ncnc(N5CCC5)c43)cnn2C)c(C)c1 [Example 2, 7-(Azetidin-1-yl)-1-(5-(4-methoxy-2-methylphenyl)-1-methyl-1H-pyrazol-4-yl)-3-methyl-1H-pyrazolo[4,3-d]pyrimidine]

pIC50 [1]: 8.02
Compound: Cc1nn(-c2cnn(C)c2-c2ccc(C3CC3)cc2)c2c(N3CCC3)ncnc12 [Example 3, 7-(Azetidin-1-yl)-1-(5-(4-cyclopropylphenyl)-1-methyl-1H-pyrazol-4-yl)-3-methyl-1H-pyrazolo[4,3-d]pyrimidine]

pIC50 [1]: 7.73 | selectivity for PDE2 over PDE4D [6]: greater than 20 fold | selectivity for PDE2 over PDE5 [7]: greater than 20 fold | selectivity for PDE2 over PDE7B [9]: greater than 20 fold | selectivity for PDE2 over PDE8A [10]: greater than 20 fold | selectivity for PDE2 over PDE9A [11]: greater than 20 fold | selectivity for PDE2 over PDE10A [12]: greater than 20 fold | selectivity for PDE2 over PDE11A [13]: greater than 20 fold
Compound: CCc1ccc(-c2c(-n3nc(C)c4ncnc(N5CCC5)c43)cnn2C)cc1 [Example 4, 7-(Azetidin-1-yl)-1-(5-(4-ethylphenyl)-1-methyl-1H-pyrazol-4-yl)-3-methyl-1H-pyrazolo[4,3-d]pyrimidine]
selectivity for PDE2 over PDE1 [4]: greater than 20 fold | selectivity for PDE2 over PDE3 [5]: greater than 20 fold | selectivity for PDE2 over PDE6 [8]: greater than 20 fold
